Among the data in PMC12131194, “Rational design, synthesis, and evaluation of novel polypharmacological compounds targeting NaV1.5, KV1.5, and K2P channels for atrial fibrillation” (The Journal of Biological Chemistry, 2025) are inhibition values, retold here.

SMILES strings stand for the structures.

The target in the experiment is human TASK-1 (Homo sapiens, UniProt O14649). Nature of the experiment: Whole-cell patch-clamp in transfected HEK-293 cells, TASK-1. Type of experiment: cell-based. On the set-up: human TASK-1 (KCNK3, NM_002246); expressed in transfected cells. The following applies: HEK293, +40 mV. How it is done:
The human embryonic kidney 293 (HEK-293) cell line was obtained from the American Type Culture Collection. HEK-293 cells were cultured in Dulbecco’s modified Eagle’s medium (DMEM-F12, Invitrogen Life Technologies) supplemented with 5% (v/v) fetal bovine serum (FBS) (Thermo Fisher Scientific) and 1% antibiotics (penicillin 100 U/ml y streptomycin 100 μg/ml) (Gibco, Thermo Fisher). The cells were maintained at 37 °C and 5% CO2 atmosphere.
For the electrophysiological experiments, HEK-293 cells were transiently transfected with cDNA encoding human NaV1.5 (plasmid 145,374, Addgene), KV1.5 (NM_002234), and TASK-1 (NM_002246). […] The cells were incubated for 4 h in transfection medium OptiMEM (Invitrogen). […]
For Nav1.5, the effect of 6f at both concentrations was tested using a repetitive single test voltage pulse at −10 mV (during 20 ms) from a holding potential of −80 mV, with intervals of 5s between pulses. For Kv1.5 and TASK-1, ramp voltage protocols were applied with pulse intervals of 20 s, and the currents were analyzed at +40 mV. […]
After recording currents with stable amplitudes, the cells were treated with 6f and applied from the bath solution. Currents were continuously recorded during repetitive pulses until a stable effect was achieved. […] The inhibition percentage was calculated as follows: Inℎibition (%) = 100 ∗ (Icontrol − Idrug)/Icontrol.
For orientation: Patch clamp records ionic current or voltage across a cell membrane.

human TASK-1, sequence (O14649 whole entry): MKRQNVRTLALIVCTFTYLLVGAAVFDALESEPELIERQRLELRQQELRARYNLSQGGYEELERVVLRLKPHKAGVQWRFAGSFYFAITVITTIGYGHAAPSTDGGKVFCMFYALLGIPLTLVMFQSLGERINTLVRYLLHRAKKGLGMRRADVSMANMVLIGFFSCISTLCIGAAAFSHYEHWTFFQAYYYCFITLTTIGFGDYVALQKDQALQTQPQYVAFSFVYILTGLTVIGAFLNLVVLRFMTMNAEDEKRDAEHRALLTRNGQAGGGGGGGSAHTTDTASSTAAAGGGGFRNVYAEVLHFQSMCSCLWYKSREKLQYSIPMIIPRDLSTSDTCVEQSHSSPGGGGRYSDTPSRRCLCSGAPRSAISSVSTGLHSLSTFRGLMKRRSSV

One may read the inhibition as the percentage by which the read-out fell short of the control. Low values mean a weak effect, high ones a strong effect. Where the note is “10 μM”, `CCCCN(CCCC)CC(=O)Nc1ccc(OC)cc1OC` [Compound 6f, 2-(dibutylamine)-N-(2,4-dimethoxiphenyl)acetamide] displayed an inhibition at 10 µM of 70%. The compound also showed an inhibition at 100 µM (100 μM) of 70%.
